The text below walks through data of publication PMC12670160, “A drug-repurposing screen of FDA- and EMA-approved drugs identifies two NF-κB inhibitors active against eumycetoma” (Journal of Antimicrobial Chemotherapy, 2025).

In general, IC50 refers to the point on the concentration scale where inhibition reaches its midpoint. High values mean weaker potency, low ones greater potency. Usually MIC50 stands for an inhibitory concentration at the 50% level, which refers to growth in some studies and to a panel of isolates in others.

The test system of data set [1] is M. mycetomatis. The experiment in a line: In vitro susceptibility, averages over M. mycetomatis isolates (average metabolic activity at 2 µM, mean MIC). It counts as cell-based. The following applies: Madurella mycetomatis, 96 h, 4 days at 37°C, CellTiter-Glo, average of 3 isolates, 20% or below = inhibition. A general note: In ATP-based viability assays light output follows the ATP content of the culture.

Data set [2] has as its system M. mycetomatis strain mm55. Put plainly: IC50 and MIC determination, CellTiter-Glo, strain mm55. The data set is classed as cell-based, Madurella mycetomatis. The following applies: Madurella mycetomatis; for IC50: concentration inhibiting 50% of fungal hyphae growth; for MIC: concentration with complete growth inhibition.
Data set [3] deals with M. mycetomatis strain P1. Put plainly: IC50 and MIC determination, CellTiter-Glo, strain P1. As to conditions: Madurella mycetomatis, P1. It counts as cell-based, Madurella mycetomatis.
For data set [4], the system named is M. mycetomatis strain I1. Put plainly: IC50 and MIC determination, CellTiter-Glo, strain I1. The data set is classed as cell-based, Madurella mycetomatis. The following applies: Madurella mycetomatis, I1.
Data set [5] concerns healthy uninfected G. mellonella larvae. As to conditions: 20 µL of 20 µM injected; for Toxicity in G. mellonella larvae at 20 µM: 10 day observation, toxic if more than 20% of larvae died; for larval survival: 10 days, uninfected larvae. How it is done:
(§1) For in vivo experiments, sixth-week instar G. mellonella larvae were purchased from Blue-Lagoon, Maassluis, The Netherlands. The larvae were raised and kept in the dark at room temperature. Larvae without any discoloration and weighing around 500 mg were selected for experiments.
To determine the toxicity, 15 healthy uninfected larvae were injected with 20 µL of 20 µM compound as previously described.[16] […] As a control, a separate group of larvae were injected with 20 µL of PBS. Larvae were housed in Petri dishes with Whatman paper at 37°C in the dark. Survival was monitored for 10 days.

For data set [6], the system named is M. mycetomatis MM55-infected G. mellonella larvae. The experiment in a line: Therapeutic efficacy in M. mycetomatis-infected G. mellonella larvae (survival, log-rank). It counts as in vivo, Galleria mellonella. As to conditions: 20 µL of 20 µM at 4, 28 and 52 h post infection; 10 days. How it is done: as §1
The wet weight was determined and 10 mL of PBS per gram of mycelia was added. The suspension was then sonicated for 2 min to achieve a particle size of 10 µm. The fungal suspension (4 mg/40 µL) was injected into the last left pro-leg of a healthy G. mellonella larva with an insulin 29G U-100 needle to reach a final inoculum of 4 mg/larva. Larvae were placed in Petri dishes containing Whatman paper in a 37°C incubator.
A control group was also included in which M. mycetomatis-infected larvae were treated with PBS or with 1 mg/kg amphotericin B (Fungizone, Bristol Myers Squibb, Utrecht, The Netherlands). […] The treatment was repeated at 28 h post infection and 52 h post infection via different prolegs. The infection was monitored for 10 days.
To compare the survival rates between PBS treatment control and the different experimental groups a log-rank test was performed. All data were processed and performed in GraphPad Prism 10.

The test system of data set [7] is thioredoxin reductase. Also on record: method as in PMID 39816643. As to conditions: cited from earlier work.
Data set [8] relates to M. mycetomatis. More on the design: method as in PMID 35398930, PMID 15793113, PMID 36005544, PMID 34181477, PMID 22964246. The following applies: against M. mycetomatis; cited from earlier work.
Data set [9] has as its system M. mycetomatis-infected G. mellonella larvae. The following applies: M. mycetomatis-infected G. mellonella larvae; cited from earlier work.
The test system of data set [10] is eumycetoma. The following applies: cited from earlier work.
Data set [11] concerns M. mycetomatis mouse model. More on the design: method as in PMID 26150103. The following applies: cited from earlier work.
For data set [12], the system named is M. mycetomatis strain I1. The experiment in a line: microbe, parasite or virus in culture. As to conditions: Madurella mycetomatis, I1, 96 h. More on the design: species or system Madurella mycetomatis hyphae. How it is done: (§2) The Oncode Drug Repurposing library was based on the drug repurposing library from the Drug Repurposing Hub of the Broad Institute and recreated by the Oncode institute.[13] The library contained 5631 drugs.[18] A copy of this library was plated out on 384-well plates with lids (cat no. 655180; Greiner Bio-One, Alphen aan den Rijn, The Netherlands) by the Leiden University Medical Center. Each well of the 384-well plates contained 0.6 µL of a 200 µM stock concentration of compound, resulting in a final concentration of 2 µM when the fungus was added. From the previous libraries we screened, we noted that there are several compounds able to inhibit M. mycetomatis at this concentration in vitro. Furthermore, this concentration could also be reached in the G. mellonella larvae.[8],[11] The prepared 384-well plates were transferred on dry ice to the Erasmus MC and stored at −80°C until they were screened. We created a second library from the original library, containing only those 29 compounds that were active in the first screen. […] To determine the in vitro susceptibility of M. mycetomatis to the compounds, a hyphal inoculum was prepared as described elsewhere.[19] This M. mycetomatis hyphal suspension (60 µL) was added to each of the wells in the 384-well plate, leading to a final testing concentration of 2 µM per compound. Each plate also contained a growth control (60 µL of M. mycetomatis hyphal suspension, plus 0.6 µL of DMSO) and a negative control (60 µL of culture medium, plus 0.6 µL of DMSO). Plates were then incubated for 4 days at 37°C, after which 30 µL of CellTiter-Glo 3D Cell Viability reagent was added to every well.[19] After 25 min of incubation at room temperature, the luminescence was measured with a CytoFluor Series 4000 luminometer (PerSeptive Biosystems, Framingham, MA, USA). To determine the metabolic activity, the following formula was used: For each of these 29 active compounds, the IC50 and MIC were determined for M. mycetomatis strains MM55, P1 and I1 (Table 1 and Table S1).

In data set [13] the test system is M. mycetomatis strain P1. Put plainly: microbe, parasite or virus in culture. More on the design: species or system Madurella mycetomatis hyphae. As to conditions: Madurella mycetomatis, P1, 96 h. As to the method: as §2
In data set [14] the test system is M. mycetomatis strain mm55. Put plainly: microbe, parasite or virus in culture. More on the design: species or system Madurella mycetomatis hyphae. The following applies: Madurella mycetomatis, MM55, 96 h. As to the method: as §2
Data set [15] has as its system M. mycetomatis. Also on record: method as in PMID 34209118. The following applies: in vitro; cited from earlier work.
In data set [16] the test system is primary human neutrophils exposed to C. albicans. More on the design: method as in PMID 19609651. The following applies: cited from earlier work.
For data set [17], the system named is vancomycin-resistant Staphylococcus aureus strains. The following applies: cited from earlier work.
The test system of data set [18] is Rhodnius prolixus. Also on record: method as in PMID 30233391. The following applies: insect vector Rhodnius prolixus; cited from earlier work.
The test system of data set [19] is itraconazole-susceptible and itraconazole-resistant Aspergillus fumigatus. Also on record: method as in PMID 37037064. The following applies: cited from earlier work.

≈ marks a conversion by molar mass, not a printed value. Entries after “also recorded” stand apart in the source; their conditions may differ. Structures can show the parent of a compound that is named as a salt.

`CC(C)(C)c1ccc(S(=O)(=O)/C=C/C#N)cc1` [bay117085] yielded an activity at 2 µM in data set [1] of 4%. Also, the IC50 came to 1.51 µM in [2], 0.85 µM in [3] and 0.72 µM in data set [4]. Moreover, the MIC in data set [2] worked out at 2 µM (≈ 0.499 µg/mL); in [3] it was 2 µM (≈ 0.499 µg/mL); in data set [4], 1 µM (≈ 0.249 µg/mL). In data set [5], the “Toxicity in G. mellonella larvae at 20 µM” value is “not toxic”. In addition, the larval survival result in [5] is “above 80%”. Moreover, the “Survival of M. mycetomatis-infected larvae versus PBS” value in [6] is on record as “prolonged the survival; also recorded: prolonged larval survival”. Further, in [7], the thioredoxin reductase inhibition result was “able to inhibit thioredoxin reductase”.
`CCC(C)n1ncn(-c2ccc(N3CCN(c4ccc(OCC5COC(Cn6cncn6)(c6ccc(Cl)cc6Cl)O5)cc4)CC3)cc2)c1=O` (stereo not drawn) [Itraconazole hydrochloride] came in with an activity at 2 µM in [1] of 6.1%. Moreover, the figures for the IC50 in data set [2], in data set [3] and in [4] were 1.58 µM, 0.84 µM and 0.78 µM, respectively. For the same compound, the values for the MIC in data set [2], in [3] and in [4] were 2 µM, 2 µM and 1 µM, respectively. In [8], the MIC50 is 0.06 µg/mL. In addition, the larval survival result in [9] is on record as “No prolonged larval survival”. In addition, the “lesion size or β-glucan levels” value in data set [10] (400 mg/day, first 6 months of treatment) is on record as “no reduction”. The cure rate in data set [10] (itraconazole combined with surgery, clinical trial setting) was 80%. The “activity in M. mycetomatis mouse model” value in data set [11] is on record as “lack of activity”.
In the case of `Cc1c(N)nc([C@H](CC(N)=O)NC[C@H](N)C(N)=O)nc1C(=O)N[C@H](C(=O)N[C@H](C)[C@@H](O)[C@H](C)C(=O)N[C@H](C(=O)NCCc1nc(-c2nc(C(=O)NCCCNCCCCN)cs2)cs1)[C@@H](C)O)[C@@H](O[C@@H]1O[C@@H](CO)[C@@H](O)[C@H](O)[C@@H]1O[C@@H]1O[C@H](CO)[C@@H](O)[C@H](OC(N)=O)[C@@H]1O)c1cnc[nH]1` [ONC0002990, bleomycetin], the IC50 was 0.2 µM in data set [12], below 0.03 µM in [13] and 0.21 µM in [14]. In addition, the MIC in data set [12] was 0.5 µM (≈ 0.72 µg/mL); in data set [13] it was below 0.03 µM; in [14], 0.5 µM (≈ 0.72 µg/mL).
On to `O=C(Nc1ccc([N+](=O)[O-])cc1Cl)c1cc(Cl)ccc1O` [niclosamide], for which the “activity against M. mycetomatis” value in data set [15] is “active”.
On to `Cc1ccc(S(=O)(=O)/C=C/C#N)cc1` [bay117082], for which the “chemotaxis, phagocytosis and killing activity of neutrophils” value in [16] was “able to reduce”.
In data set [1], `O=C(Nc1cc(C(F)(F)F)cc(C(F)(F)F)c1)c1cc(Cl)ccc1O` [IKK2 inhibitor V (IMD-0354), IMD-0354] came in with an activity at 2 µM of 2.3%. In addition, the IC50 is 1.76 µM in data set [2], 0.17 µM in data set [3] and 1.68 µM in data set [4]. Moreover, the MIC is 2 µM (≈ 0.767 µg/mL) in [2], 0.25 µM (≈ 0.0959 µg/mL) in data set [3], 2 µM (≈ 0.767 µg/mL) in [4] and 0.06 µg/mL (≈ 0.156 µM) in [17] (Gram-positive vancomycin-resistant Staphylococcus aureus strains). The “Toxicity in G. mellonella larvae at 20 µM” value in data set [5] was “not toxic”. Moreover, the larval survival result in data set [5] is recorded as “above 80%”. Besides, the “Survival of M. mycetomatis-infected larvae versus PBS” value in data set [6] is given as “prolonged the survival; also recorded: prolonged larval survival”. For the same compound, the biofilm formation result in data set [17] (vancomycin-resistant staphylococci) is listed as “able to inhibit biofilm formation”. For the same compound, the “expression of antimicrobial peptides” value in [18] is listed as “decreased”. Also, the “mortality after Trypanosoma cruzi infection” value in [18] is given as “reduced mortality”.
With `CC(=O)OC[C@H]1O[C@@H]([S-])[C@H](OC(C)=O)[C@@H](OC(C)=O)[C@@H]1OC(C)=O.CCP(CC)CC.[Au+]` [auranofin], the Aspergillus biofilm formation entry in data set [19] is given as “inhibitory activity”. Also, the antifungal activity result in [19] (itraconazole-susceptible and itraconazole-resistant A. fumigatus) was “potent antifungal activity”. Moreover, the thioredoxin reductase inhibition result in [7] is on record as “able to inhibit thioredoxin reductase”.
